PubChem BioAssay AID248 (DTP/NCI, 2004)
“And” between values parts separate entries of the source, which are not always exact repeats. Equal values may be shown once. Inconclusive results and toxic doses are left out.

Tested on: L1210 leukemia ip in BDF1 mice, survival T/C
Assay: NCI In Vivo Anticancer Drug Screen. Data for tumor model L1210 Leukemia (intraperitoneal) in B6D2F1 (BDF1) mice
Details: endpoint: mean survival time, higher = longer survival
In short: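 In this screen, tumor-bearing mice given compound are compared to those given vehicle, and their survival values are reported as a treated-to-control quotient.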

[1] = dose: 100.0 mg/kg/injection, schedule: Q04DX002 (ip), vehicle: Klucel (hydroxypropylcellulose) (HPC)
[2] = dose: 200.0 mg/kg/injection, schedule: Q04DX002 (ip), vehicle: Klucel (hydroxypropylcellulose) (HPC)
[3] = dose: 400.0 mg/kg/injection, schedule: Q04DX002 (ip), vehicle: Klucel (hydroxypropylcellulose) (HPC)
[4] = dose: 50.0 mg/kg/injection, schedule: Q01DX009 (ip), vehicle: saline with Tween-80
[5] = dose: 100.0 mg/kg/injection, schedule: Q01DX009 (ip), vehicle: saline with Tween-80
[6] = dose: 100.0 mg/kg/injection, schedule: Q04DX003 (ip), vehicle: saline with Tween-80
[7] = dose: 100.0 mg/kg/injection, schedule: Q01DX001 (ip), vehicle: carboxymethylcellulose (CMC)
[8] = dose: 200.0 mg/kg/injection, schedule: Q01DX001 (ip), vehicle: carboxymethylcellulose (CMC)
[9] = dose: 400.0 mg/kg/injection, schedule: Q01DX001 (ip), vehicle: carboxymethylcellulose (CMC)
[10] = dose: 100.0 mg/kg/injection, schedule: Q01DX009 (ip), vehicle: Klucel (hydroxypropylcellulose) (HPC)
[11] = dose: 200.0 mg/kg/injection, schedule: Q01DX009 (ip), vehicle: Klucel (hydroxypropylcellulose) (HPC)
[12] = dose: 100.0 mg/kg/injection, schedule: Q01DX009 (ip), vehicle: saline
[13] = dose: 100.0 mg/kg/injection, schedule: Q04DX003 (ip), vehicle: saline
[14] = dose: 200.0 mg/kg/injection, schedule: Q01DX009 (ip), vehicle: saline
[15] = dose: 200.0 mg/kg/injection, schedule: Q04DX003 (ip), vehicle: saline
[16] = dose: 400.0 mg/kg/injection, schedule: Q04DX003 (ip), vehicle: saline
[17] = dose: 100.0 mg/kg/injection, schedule: Q01DX001 (ip), vehicle: saline
[18] = dose: 200.0 mg/kg/injection, schedule: Q01DX001 (ip), vehicle: saline
[19] = dose: 400.0 mg/kg/injection, schedule: Q01DX001 (ip), vehicle: saline

CCCCCCCCCCCCCCCCCCNC(=O)Nc1ccccc1OC
T/C [1]: 101 % of control
T/C [2]: 107 % of control
T/C [3]: 96 % of control

N#Cc1nc(/C=C\c2ccc3c(c2)OCO3)cnc1N
T/C (dose: 100.0 mg/kg/injection, schedule: Q01DX001 (ip), vehicle: Klucel (hydroxypropylcellulose) (HPC)): 106 % of control
T/C (dose: 200.0 mg/kg/injection, schedule: Q01DX001 (ip), vehicle: Klucel (hydroxypropylcellulose) (HPC)): 95 % of control
T/C (dose: 400.0 mg/kg/injection, schedule: Q01DX001 (ip), vehicle: Klucel (hydroxypropylcellulose) (HPC)): 89 % of control

O=I(=O)c1ccccc1
T/C (dose: 25.0 mg/kg/injection, schedule: Q01DX009 (ip), vehicle: saline with Tween-80): 101 % of control
T/C [4]: 103 % of control
T/C [5]: 97 % of control
T/C [6]: 96 % of control

CC(=O)N1C=Cc2ccccc2C1C1c2ccccc2C=CN1C(C)=O (configuration not stated)
T/C (dose: 100.0 mg/kg/injection, schedule: Q04DX003 (ip), vehicle: Klucel (hydroxypropylcellulose) (HPC)): 98 % of control
T/C (dose: 200.0 mg/kg/injection, schedule: Q04DX003 (ip), vehicle: Klucel (hydroxypropylcellulose) (HPC)): 96 % of control
T/C (dose: 400.0 mg/kg/injection, schedule: Q04DX003 (ip), vehicle: Klucel (hydroxypropylcellulose) (HPC)): 93 % of control

O=NN(CCCl)C(=O)Nc1ccc2c3c(cccc13)-c1ccccc1-2
T/C (dose: 118.0 mg/kg/injection, schedule: Q01DX009 (ip), vehicle: carboxymethylcellulose (CMC)): 111 % of control
T/C (dose: 177.0 mg/kg/injection, schedule: Q01DX009 (ip), vehicle: carboxymethylcellulose (CMC)): 119 % of control
T/C (dose: 266.0 mg/kg/injection, schedule: Q01DX009 (ip), vehicle: carboxymethylcellulose (CMC)): 113 % of control
T/C (dose: 600.0 mg/kg/injection, schedule: Q01DX001 (ip), vehicle: carboxymethylcellulose (CMC)): 117 % of control
T/C (dose: 600.0 mg/kg/injection, schedule: Q01DX009 (ip), vehicle: carboxymethylcellulose (CMC)): 98 % of control

Cc1ccc(S(=O)(=O)NNC(=O)c2ccccc2NCC(O)C(O)C(O)CO)cc1 (configuration not stated)
T/C [7]: 98 % of control
T/C [8]: 96 % of control
T/C [9]: 98 % of control

Nc1ccccc1C(=O)N/N=C/c1ccc(Cl)cc1Cl
T/C [10]: 89 % of control
T/C [1]: 95 % of control
T/C [11]: 98 % of control
T/C [2]: 102 % of control
T/C [3]: 104 % of control

OCC1=CC(O)C2C=COC(C3OC(CO)C(O)C(O)C3O)C12 (configuration not stated)
T/C (dose: 50.0 mg/kg/injection, schedule: Q01DX009 (ip), vehicle: saline): 96 % of control
T/C [12]: 96 % of control
T/C [13]: 96 % of control
T/C [14]: 95 % of control
T/C [15]: 100 % of control
T/C [16]: 100 % of control

Cc1ccc(S(=O)(=O)N2/C(=C/c3ccccc3)C(=O)c3ccccc3-c3ccccc32)cc1
T/C [17]: 96 % of control
T/C [18]: 91 % of control
T/C [19]: 90 % of control

O=C1c2ccccc2C(=O)c2c(Sc3ccccc3)cccc21
T/C [6]: 96 % of control
T/C (dose: 200.0 mg/kg/injection, schedule: Q04DX003 (ip), vehicle: saline with Tween-80): 98 % of control
T/C (dose: 400.0 mg/kg/injection, schedule: Q04DX003 (ip), vehicle: saline with Tween-80): 95 % of control

CCC(C)(C(=O)O)C(=O)O
T/C [17]: 103 % of control

CCSc1ncc(Br)c(Sc2nc(N)nc3nc[nH]c23)n1
T/C (dose: 1.5 mg/kg/injection, schedule: Q01DX Z (ip), vehicle: carboxymethylcellulose (CMC)): 107 % of control
T/C (dose: 12.0 mg/kg/injection, schedule: Q01DX Z (ip), vehicle: carboxymethylcellulose (CMC)): 150 % of control
T/C (dose: 25.0 mg/kg/injection, schedule: Q01DX001 (ip), vehicle: carboxymethylcellulose (CMC)): 121 % of control
T/C (dose: 25.0 mg/kg/injection, schedule: Q01DX Z (ip), vehicle: methylcellulose (MC)): 86 % of control
T/C [8]: 116 % of control

Nc1nc(N)c2cc(CNc3ccc(Cl)c(C(=O)NC(CC(=O)O)C(=O)O)c3)cnc2n1 (configuration not stated)
T/C [12]: 95 % of control
T/C [13]: 106 % of control
T/C [14]: 94 % of control
T/C [15]: 93 % of control
T/C (dose: 400.0 mg/kg/injection, schedule: Q01DX009 (ip), vehicle: saline): 89 % of control
T/C [16]: 97 % of control

Cc1nnc(NC(=O)CCl)s1
T/C (dose: 100.0 mg/kg/injection, schedule: Q01DX001 (ip), vehicle: other): 107 % of control
T/C [10]: 98 % of control
T/C (dose: 100.0 mg/kg/injection, schedule: Q04DX003 (ip), vehicle: other): 98 % of control
T/C (dose: 200.0 mg/kg/injection, schedule: Q01DX001 (ip), vehicle: other): 100 % of control
T/C (dose: 200.0 mg/kg/injection, schedule: Q04DX003 (ip), vehicle: other): 106 % of control
T/C (dose: 400.0 mg/kg/injection, schedule: Q01DX001 (ip), vehicle: other): 98 % of control
T/C (dose: 400.0 mg/kg/injection, schedule: Q04DX003 (ip), vehicle: other): 101 % of control

CCCCC1CN2CCc3cc(OC)c(OC)cc3C2CC1=O (configuration not stated)
T/C (dose: 50.0 mg/kg/injection, schedule: Q01DX009 (ip), vehicle: Klucel (hydroxypropylcellulose) (HPC)): 96 % of control and 97 % of control
T/C [10]: 89 % of control and 103 % of control
T/C [11]: 94 % of control and 96 % of control
T/C (dose: 400.0 mg/kg/injection, schedule: Q01DX009 (ip), vehicle: Klucel (hydroxypropylcellulose) (HPC)): 97 % of control

Cc1c(Cl)cc(Cl)c2ncccc12
T/C (dose: 12.5 mg/kg/injection, schedule: Q04DX003 (ip), vehicle: Klucel (hydroxypropylcellulose) (HPC)): 95 % of control
T/C (dose: 25.0 mg/kg/injection, schedule: Q04DX003 (ip), vehicle: Klucel (hydroxypropylcellulose) (HPC)): 86 % of control
T/C (dose: 50.0 mg/kg/injection, schedule: Q04DX003 (ip), vehicle: Klucel (hydroxypropylcellulose) (HPC)): 96 % of control

CC1NCc2c(N)nc(N)nc21 (configuration not stated)
T/C [7]: 98 % of control
T/C [8]: 95 % of control
T/C [9]: 98 % of control

CCOC(=O)c1occ(Cl)c1Cl
T/C [17]: 107 % of control
T/C [18]: 113 % of control

O=C(O)C(=O)Cc1nnn(-c2ccccc2)c1-c1ccccc1
T/C (dose: 75.0 mg/kg/injection, schedule: Q01DX001 (ip), vehicle: acetone): 95 % of control
T/C (dose: 150.0 mg/kg/injection, schedule: Q01DX001 (ip), vehicle: acetone): 101 % of control
T/C (dose: 300.0 mg/kg/injection, schedule: Q01DX001 (ip), vehicle: acetone): 95 % of control

CC(=O)Nc1ncnc2n[nH]c(C#N)c12
T/C (dose: 50.0 mg/kg/injection, schedule: Q01DX005 (ip), vehicle: saline with Tween-80): 108 % of control
T/C (dose: 100.0 mg/kg/injection, schedule: Q01DX005 (ip), vehicle: saline with Tween-80): 106 % of control

CC1CCCC/C1=N/NC(=O)c1ccccc1 (configuration not stated)
T/C [4]: 95 % of control
T/C [5]: 110 % of control
T/C (dose: 200.0 mg/kg/injection, schedule: Q01DX009 (ip), vehicle: saline with Tween-80): 108 % of control

CC1(C)CCC2=C(O1)C(=O)c1ccccc1C2=O
T/C (dose: 100.0 mg/kg/injection, schedule: Q01DX001 (ip), vehicle: saline with Tween-80): 102 % of control
T/C (dose: 200.0 mg/kg/injection, schedule: Q01DX001 (ip), vehicle: saline with Tween-80): 104 % of control
T/C (dose: 400.0 mg/kg/injection, schedule: Q01DX001 (ip), vehicle: saline with Tween-80): 94 % of control

CNC(C)(C)CO
T/C [13]: 100 % of control
T/C [15]: 107 % of control
T/C [16]: 104 % of control

NC(=S)N/N=C1/CCCCC12CCCCC2
T/C (dose: 50.0 mg/kg/injection, schedule: Q01DX001 (ip), vehicle: saline): 116 % of control
T/C [17]: 91 % of control
T/C [18]: 124 % of control
T/C [19]: 100 % of control

N#CCCN1CCCCCC1
T/C (dose: 15.0 mg/kg/injection, schedule: Q01DX009 (ip), vehicle: saline with Tween-80): 98 % of control
T/C (dose: 30.0 mg/kg/injection, schedule: Q01DX009 (ip), vehicle: saline with Tween-80): 95 % of control
T/C (dose: 30.0 mg/kg/injection, schedule: Q04DX003 (ip), vehicle: saline with Tween-80): 92 % of control
T/C (dose: 60.0 mg/kg/injection, schedule: Q01DX009 (ip), vehicle: saline with Tween-80): 104 % of control
T/C (dose: 60.0 mg/kg/injection, schedule: Q04DX003 (ip), vehicle: saline with Tween-80): 109 % of control
